From US20130197205A1, “CHITOSAN COVALENTLY LINKED WITH SMALL MOLECULE INTEGRIN ANTAGONIST FOR TARGETED DELIVERY” (Hoffmann-La Roche Inc., priority 2012, published 2013)
Read-outs that look alike come from different tables or passages of the source.

Biological target: T1, αvβ3 (Homo sapiens, UniProt P05106+P06756, DEL719-788)
T1 construct: purchased R & D 3050-AV
Assay: Human αVβ3 solid phase assay (fibrinogen binding)
Settings: αvβ3-coated plates, fibrinogen as ligand
Protocol: Buffer used was Buffer A: 20 mM Tris, 150 mM NaCl, 1 mM CaCl2, 1 mM MgCl2, pH 7.4. […] After blocking, plates were washed 5 times with 200 uL of Buffer B (Buffer A+1 mM MnCl2). […] Plates were shaken for 2 minutes, and then incubated for 2 hours for 37° C. […] After the addition of 1st antibody and after the addition of 2nd antibody, plates were shaken for 2 minutes and incubated for 60 minutes at 37° C., and then washed 5 times with 200 uL of Buffer B correspondingly. […] Plates were shaken at RT for 5-8 min, and the development of a green color was gradually showing. After being added 100 uL/well Stop Buffer (1.0 M Phosphoric Acid ([…])), plates were read on Envision at Absorbance mode 450 nm.

T1 sequence (P06756 31-992 limits assumed, stated change not applied): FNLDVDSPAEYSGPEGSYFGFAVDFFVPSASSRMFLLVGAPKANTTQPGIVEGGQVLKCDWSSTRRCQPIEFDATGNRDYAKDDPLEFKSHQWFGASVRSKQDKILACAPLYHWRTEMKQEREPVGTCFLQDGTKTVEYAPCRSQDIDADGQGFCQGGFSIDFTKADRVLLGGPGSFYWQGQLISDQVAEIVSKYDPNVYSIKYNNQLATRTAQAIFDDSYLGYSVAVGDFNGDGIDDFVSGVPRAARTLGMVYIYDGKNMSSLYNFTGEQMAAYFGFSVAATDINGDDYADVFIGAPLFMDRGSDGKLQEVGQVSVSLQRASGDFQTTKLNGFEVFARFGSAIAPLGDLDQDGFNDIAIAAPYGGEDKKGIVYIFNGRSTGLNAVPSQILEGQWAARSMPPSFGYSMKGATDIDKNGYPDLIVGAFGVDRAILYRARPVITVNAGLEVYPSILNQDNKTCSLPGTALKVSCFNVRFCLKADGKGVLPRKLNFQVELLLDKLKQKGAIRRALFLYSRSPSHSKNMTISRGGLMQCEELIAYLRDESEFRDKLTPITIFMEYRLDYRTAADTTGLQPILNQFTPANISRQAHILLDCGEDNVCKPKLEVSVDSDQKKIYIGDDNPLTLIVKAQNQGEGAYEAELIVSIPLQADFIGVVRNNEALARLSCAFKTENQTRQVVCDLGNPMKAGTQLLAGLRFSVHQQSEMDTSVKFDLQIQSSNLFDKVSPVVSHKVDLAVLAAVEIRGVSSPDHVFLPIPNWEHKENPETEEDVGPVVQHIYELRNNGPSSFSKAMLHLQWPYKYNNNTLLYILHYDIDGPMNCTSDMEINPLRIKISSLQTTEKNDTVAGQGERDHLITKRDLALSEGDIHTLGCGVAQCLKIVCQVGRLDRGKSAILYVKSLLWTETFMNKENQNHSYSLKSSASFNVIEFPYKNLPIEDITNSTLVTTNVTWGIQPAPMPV
T1 sequence (P05106 27-718 limits assumed, stated change not applied): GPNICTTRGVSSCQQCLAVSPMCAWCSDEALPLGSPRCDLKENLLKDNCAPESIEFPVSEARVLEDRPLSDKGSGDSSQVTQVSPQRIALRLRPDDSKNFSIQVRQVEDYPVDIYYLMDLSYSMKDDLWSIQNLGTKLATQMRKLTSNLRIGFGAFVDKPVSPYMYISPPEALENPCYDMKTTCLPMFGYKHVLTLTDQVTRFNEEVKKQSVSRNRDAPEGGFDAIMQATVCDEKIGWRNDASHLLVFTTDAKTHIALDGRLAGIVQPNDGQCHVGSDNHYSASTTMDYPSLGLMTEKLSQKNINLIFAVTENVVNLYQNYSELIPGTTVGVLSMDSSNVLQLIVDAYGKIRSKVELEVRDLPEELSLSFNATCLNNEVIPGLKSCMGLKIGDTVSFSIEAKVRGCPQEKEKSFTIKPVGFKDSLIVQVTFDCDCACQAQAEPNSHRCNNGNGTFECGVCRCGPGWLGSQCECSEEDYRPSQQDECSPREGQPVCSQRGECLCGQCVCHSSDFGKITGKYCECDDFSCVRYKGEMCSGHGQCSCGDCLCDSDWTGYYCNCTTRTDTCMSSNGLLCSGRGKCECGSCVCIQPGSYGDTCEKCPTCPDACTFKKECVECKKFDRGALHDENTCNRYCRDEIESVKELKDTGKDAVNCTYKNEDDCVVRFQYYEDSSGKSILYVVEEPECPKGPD

## COc1ccc(NC(=O)[C@H](CC(=O)O)NC(=O)CNC(=O)c2cccc(N=C(N)N)c2)cc1 [compound 28]
read-out: Binding IC50
  IC50: 2 nM
read-out: IC50 of control compound
  IC50: ~2 nM
